# Measured values reported in BigSolDB 2.1.
structure (smiles),measurement,setting,value
O=C(O)CNC(=O)C(=O)NCC(=O)O,solubility (mole fraction),"in DMF, 293.15 K",0.0292
same,solubility (mole fraction),"in DMF, 298.15 K",0.0401
same,solubility (mole fraction),"in DMF, 303.15 K",0.0519
same,solubility (mole fraction),"in DMF, 308.15 K",0.0629
same,solubility (mole fraction),"in DMF, 313.15 K",0.0732
same,solubility (mole fraction),"in DMF, 318.15 K",0.082
same,solubility (mole fraction),"in DMF, 323.15 K",0.0879
same,solubility (mole fraction),"in DMF, 328.15 K",0.0909
same,solubility (mole fraction),"in DMF, 333.15 K",0.0923
same,solubility (mole fraction),"in DMSO, 293.15 K",0.0675
same,solubility (mole fraction),"in DMSO, 298.15 K",0.0736
same,solubility (mole fraction),"in DMSO, 303.15 K",0.0807
same,solubility (mole fraction),"in DMSO, 308.15 K",0.0879
same,solubility (mole fraction),"in DMSO, 313.15 K",0.0963
same,solubility (mole fraction),"in DMSO, 318.15 K",0.105
same,solubility (mole fraction),"in DMSO, 323.15 K",0.114
same,solubility (mole fraction),"in DMSO, 328.15 K",0.124
same,solubility (mole fraction),"in DMSO, 333.15 K",0.136
same,solubility (mole fraction),"in THF, 293.15 K",3.5e-06
same,solubility (mole fraction),"in THF, 298.15 K",1.41e-05
same,solubility (mole fraction),"in THF, 303.15 K",4.17e-05
same,solubility (mole fraction),"in THF, 308.15 K",9.96e-05
same,solubility (mole fraction),"in THF, 313.15 K",0.000203
same,solubility (mole fraction),"in THF, 318.15 K",0.000354
same,solubility (mole fraction),"in THF, 323.15 K",0.000527
same,solubility (mole fraction),"in THF, 328.15 K",0.000715
same,solubility (mole fraction),"in THF, 333.15 K",0.000892
same,solubility (mole fraction),"in acetonitrile, 293.15 K",1.6e-06
same,solubility (mole fraction),"in acetonitrile, 298.15 K",3.2e-06
same,solubility (mole fraction),"in acetonitrile, 303.15 K",5.6e-06
same,solubility (mole fraction),"in acetonitrile, 308.15 K",9.2e-06
same,solubility (mole fraction),"in acetonitrile, 313.15 K",1.41e-05
same,solubility (mole fraction),"in acetonitrile, 318.15 K",2.01e-05
same,solubility (mole fraction),"in acetonitrile, 323.15 K",2.73e-05
same,solubility (mole fraction),"in acetonitrile, 328.15 K",3.62e-05
same,solubility (mole fraction),"in acetonitrile, 333.15 K",4.71e-05
same,solubility (mole fraction),"in ethanol, 293.15 K",2.08e-05
same,solubility (mole fraction),"in ethanol, 298.15 K",3.75e-05
same,solubility (mole fraction),"in ethanol, 303.15 K",6.27e-05
same,solubility (mole fraction),"in ethanol, 308.15 K",0.000104
same,solubility (mole fraction),"in ethanol, 313.15 K",0.000155
same,solubility (mole fraction),"in ethanol, 318.15 K",0.000216
same,solubility (mole fraction),"in ethanol, 323.15 K",0.00029
same,solubility (mole fraction),"in ethanol, 328.15 K",0.000382
same,solubility (mole fraction),"in ethanol, 333.15 K",0.0005
same,solubility (mole fraction),"in ethyl acetate, 293.15 K",4.3e-06
same,solubility (mole fraction),"in ethyl acetate, 298.15 K",6e-06
same,solubility (mole fraction),"in ethyl acetate, 303.15 K",7.8e-06
same,solubility (mole fraction),"in ethyl acetate, 308.15 K",1.04e-05
same,solubility (mole fraction),"in ethyl acetate, 313.15 K",1.38e-05
same,solubility (mole fraction),"in ethyl acetate, 318.15 K",1.81e-05
same,solubility (mole fraction),"in ethyl acetate, 323.15 K",2.24e-05
same,solubility (mole fraction),"in ethyl acetate, 328.15 K",2.76e-05
same,solubility (mole fraction),"in ethyl acetate, 333.15 K",3.37e-05
same,solubility (mole fraction),"in isopropanol, 293.15 K",7.7e-06
same,solubility (mole fraction),"in isopropanol, 298.15 K",1.47e-05
same,solubility (mole fraction),"in isopropanol, 303.15 K",2.59e-05
same,solubility (mole fraction),"in isopropanol, 308.15 K",4.71e-05
same,solubility (mole fraction),"in isopropanol, 313.15 K",7.77e-05
same,solubility (mole fraction),"in isopropanol, 318.15 K",0.000118
same,solubility (mole fraction),"in isopropanol, 323.15 K",0.000174
same,solubility (mole fraction),"in isopropanol, 328.15 K",0.000246
same,solubility (mole fraction),"in isopropanol, 333.15 K",0.000355
same,solubility (mole fraction),"in methanol, 293.15 K",0.000159
same,solubility (mole fraction),"in methanol, 298.15 K",0.000222
same,solubility (mole fraction),"in methanol, 303.15 K",0.000303
same,solubility (mole fraction),"in methanol, 308.15 K",0.000409
same,solubility (mole fraction),"in methanol, 313.15 K",0.000527
same,solubility (mole fraction),"in methanol, 318.15 K",0.000663
same,solubility (mole fraction),"in methanol, 323.15 K",0.000816
same,solubility (mole fraction),"in methanol, 328.15 K",0.000997
same,solubility (mole fraction),"in methanol, 333.15 K",0.00121
same,solubility (mole fraction),"in n-butanol, 293.15 K",2.9e-06
same,solubility (mole fraction),"in n-butanol, 298.15 K",5.3e-06
same,solubility (mole fraction),"in n-butanol, 303.15 K",1e-05
same,solubility (mole fraction),"in n-butanol, 308.15 K",1.77e-05
same,solubility (mole fraction),"in n-butanol, 313.15 K",3.06e-05
same,solubility (mole fraction),"in n-butanol, 318.15 K",5.12e-05
same,solubility (mole fraction),"in n-butanol, 323.15 K",7.95e-05
same,solubility (mole fraction),"in n-butanol, 328.15 K",0.00012
same,solubility (mole fraction),"in n-butanol, 333.15 K",0.00019
same,solubility (mole fraction),"in n-propanol, 293.15 K",5.9e-06
same,solubility (mole fraction),"in n-propanol, 298.15 K",8.2e-06
same,solubility (mole fraction),"in n-propanol, 303.15 K",1.3e-05
same,solubility (mole fraction),"in n-propanol, 308.15 K",2.06e-05
same,solubility (mole fraction),"in n-propanol, 313.15 K",3.41e-05
same,solubility (mole fraction),"in n-propanol, 318.15 K",5.83e-05
same,solubility (mole fraction),"in n-propanol, 323.15 K",0.000104
same,solubility (mole fraction),"in n-propanol, 328.15 K",0.000198
same,solubility (mole fraction),"in n-propanol, 333.15 K",0.000355
same,solubility (mole fraction),"in water, 293.15 K",0.000127
same,solubility (mole fraction),"in water, 298.15 K",0.000183
same,solubility (mole fraction),"in water, 303.15 K",0.000267
same,solubility (mole fraction),"in water, 308.15 K",0.000362
same,solubility (mole fraction),"in water, 313.15 K",0.00048
same,solubility (mole fraction),"in water, 318.15 K",0.000634
same,solubility (mole fraction),"in water, 323.15 K",0.000816
same,solubility (mole fraction),"in water, 328.15 K",0.00105
same,solubility (mole fraction),"in water, 333.15 K",0.00136
